These are literature values, as cited in US20040248214A1, “Novel method of assaying immune activity” (priority 2001, published 2004).

One data set has as its system NKT cells. As to conditions: cancer-bearing mouse.

Consider `CCCCCCCCCCCCCCCCCCCCCCCCCC(=O)N[C@@H](CO[C@H]1O[C@H](CO)[C@H](O)[C@H](O)[C@H]1O)[C@H](O)[C@H](O)CCCCCCCCCCCCCC` [α-galactosylceramide], for which, in the data set on NKT cells, the “activation of NKT cells” value is recorded as “NKT cells were activated”, the disappearance of cancer result was “disappearance of cancer was not noted” and the metastasis result is “metastasis was suppressed”.

As for IL-12: interleukin 12, the side effect entry (IL-12 per se directly administered into living body) is recorded as “results in a side effect”. Also, for the setting “in vivo”, the anti-cancer effect entry is reported as “has an anti-cancer effect”.
